The text below walks through data of publication PMC3661926 (Acta Neuropathologica, 2013).

Like-named read-outs stand apart in the source and are kept apart here.

One data set relates to prion. The settings on record: cited from earlier work.
For data set [1] the following is noted: in vivo; cited from earlier work.
The subject of a further data set is RML. The note with it: mouse, in vivo, cited from earlier work.
Another data set relates to 139A. The settings on record: mouse, in vivo, cited from earlier work.
The next data set addresses T1, α-synuclein (α-syn) (Homo sapiens, UniProt P37840).
T1 construct: made in house
In words: α-synuclein in vitro oligomer formation assay (SIFT). Format: biochemical. The note with it: read-out: % inhibition α-syn SIFT. On the procedure:
Expression and purification of recombinant wild-type α-synuclein (α-syn) was performed according to established protocols. Fluorescent labelling of α-syn and quality control were performed as described.
The α-syn aggregation assay was conducted with minor modifications as published previously. […] The concentration of α-syn was approximately 20 nM. In all experiments, α-syn aggregation was induced by final concentrations of 1 % DMSO and 10 μM FeCl3. Compounds were diluted into the assay mixture from 10-fold stock solutions containing 10 % DMSO (v/v), resulting in a final concentration of 1 % DMSO in all samples. “Low control” measurements for threshold setting were obtained without FeCl3 and DMSO. Experiments were started by diluting the 5-fold stock solution of fluorescently labelled α-syn in 50 mM Tris-buffer, pH 7.0, containing 1 % DMSO, 10 μM FeCl3 and compounds in concentrations ranging from 1–10 μM.
Aggregation of α-syn was measured by scanning for intensely fluorescent targets (SIFT). […] Excitation power was 200 μW at 488 nm and 300 μW at 633 nm. Measurement time was 10 s. Scanning parameters were set to 100 μm scan path length, 50 Hz beam scanner frequency, and 2,000 μm positioning table movement. The frequency of specific combinations of “green” and “red” photon counts was recorded in a two-dimensional intensity distribution histogram, as described previously. Evaluation of SIFT data in two-dimensional intensity distribution histograms was performed by summing up the numbers of photons from high intensity bins using a two-dimensional SIFT software module (Evotec-Technologies). For threshold setting, non-aggregated reference samples were used. The photon count in bins above the threshold was considered aggregate signal.

The target of data set [2] is PrP^Sc (RML prion strain) (Mus musculus, UniProt P04925). Description: biochemical. The settings on record: read-out: % inhibition PrP^Sc PMCA.
Chain of PrP^Sc (RML prion strain) (P04925 23-230 limits assumed): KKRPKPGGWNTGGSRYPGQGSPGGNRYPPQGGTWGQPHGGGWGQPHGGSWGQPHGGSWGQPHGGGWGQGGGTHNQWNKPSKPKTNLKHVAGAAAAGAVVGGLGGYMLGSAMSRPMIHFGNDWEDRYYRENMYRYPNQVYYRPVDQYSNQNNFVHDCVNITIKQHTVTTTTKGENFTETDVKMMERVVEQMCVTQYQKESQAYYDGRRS
A further data set relates to RML scrapie. Description: whole plant or invertebrate. Format: in vivo, C57BL/6 mice. The note with it: for % inhibition PrP^Sc in vivo (b): PrP^Sc level in spleen 35 days after i.p. infection, 34 days treatment with 1 mg compound oral in peanut butter; for inhibition in vivo at 1 mg: in Mus musculus, po, 2880 h, read-out: % inhibition PrP^Sc in vivo (a).
For data set [3] the following is noted: mouse, in vivo, po.
Another data set concerns actin. Format: biochemical.
Data set [4] relates to cultured human peripheral lymphocytes.
Data set [5] concerns prion strains RML, ME7, 301C, sCJD, vCJD. It counts as biochemical, mouse and human. The settings on record: 1 μl of 10 mM compound solution in DMSO.
Another data set deals with M1000. The note with it: mouse, in vivo, ip; cited from earlier work.
Setting [6] is: relative to high control, 10 μM compound, 1 % DMSO, 10 μM FeCl3.

As a reminder, the melting point is the temperature of the solid-liquid transition. As a reminder, the inhibition is the share of the control response that was lost under treatment. One may read the inhibition in vivo as the drop in the measured response relative to a control, in per cent.

For the molecule `CCN(CC)CCCC(C)Nc1c2ccc(Cl)cc2nc2ccc(OC)cc12` (centres unmarked) [quinacrine], in the data set on prion, the “anti-prion activity in cell culture” value was “high anti-prion activity in cell culture”. The “concentrations reached in the brain” value in [1] is “does not reach sufficient concentrations in the brain”.
`C=CC[C@@H]1/C=C(\C)C[C@H](C)C[C@H](OC)[C@H]2O[C@@](O)(C(=O)C(=O)N3CCCC[C@H]3C(=O)O[C@H](/C(C)=C/[C@@H]3CC[C@@H](O)[C@H](OC)C3)[C@H](C)[C@@H](O)CC1=O)[C@H](C)C[C@@H]2OC` [Tacrolimus]: in the data set with RML (ip, 5 mg/kg), the “Median/Mean* Survival Therapy” value was 35 days and the “difference of survival therapy vs control” value (“difference” below) was 9 days.
Consider `CC(CN(C)C)CN1c2ccccc2CCc2ccccc21` (centres unmarked) [Trimipramine], for which, in the data set on 139A (ip, 10 mg/kg), the “Median/Mean* Survival Therapy” value is 210 days and the “difference” value was 40 days.
Consider `Fc1cccc(-c2nc(-c3ccc4c(c3)OCO4)no2)c1`, for which the melting point was 161 °C.
For `Ic1cccc(-c2cc(-c3ccc4c(c3)OCO4)n[nH]2)c1` [anle197b], the inhibition at 10 µM was less than 10% at α-synuclein (α-syn) (setting [6]) and 16% in [2]. In the data set with RML scrapie, the “% inhibition PrP^Sc in vivo (b)” value is listed as <10^b %.
The molecule `Nc1ccc(-c2cc(-c3ccc(Cl)cc3)[nH]n2)cc1` displayed a melting point of 213 to 214 °C.
With `Brc1cccc(-c2c[nH]c(-c3ccc4c(c3)OCO4)n2)c1` [sery345], the inhibition at 10 µM at α-synuclein (α-syn) (setting [6]) was 57%; in data set [2], less than 10%. In the data set with RML scrapie, the inhibition in vivo at 1 mg was less than 10%. The molecule further yielded a conc. brain in data set [3] of 16.6 nmol/g.
Consider `Clc1cccc(-c2cc(-c3ccc4c(c3)OCO4)n[nH]2)c1` [sery335b, 3-(1,3-Benzodioxol-5-yl)-5-(3-chlorophenyl)-1H-pyrazole], for which, on α-synuclein (α-syn) (setting [6]), the inhibition at 10 µM worked out at 90%. Besides, in data set [2], the inhibition at 10 µM was found to be 52%. Besides, in the data set with RML scrapie, the “% inhibition PrP^Sc in vivo (b)” value was 46% and the inhibition in vivo at 1 mg is 68%. The same molecule returned a conc. brain in data set [3] of 29.6 nmol/g.
On to `c1cc2c(cc1-c1cc(-c3ccc4c(c3)OCO4)[nH]n1)OCO2` [anle232b], for which the inhibition at 10 µM at α-synuclein (α-syn) (setting [6]) was less than 10%; in data set [2] it was 26%. Also, the inhibition in vivo at 1 mg in the data set with RML scrapie amounted to 23%.
In the case of `Brc1cccc(-c2cc(-c3ccc4c(c3)CCO4)[nH]n2)c1` [sery312b], the inhibition at 10 µM at α-synuclein (α-syn) was less than 10%; in [2], 42%. For the same molecule, the inhibition in vivo at 1 mg in the data set on RML scrapie is 13%. For the same molecule, in data set [3], the conc. brain is given as 3,6 nmol/g.
`O=[N+]([O-])c1ccc(-c2cc(-c3cccc(Cl)c3)n[nH]2)cc1` displayed a melting point of 275 to 276 °C.
As to `Brc1ccc(-c2cc(-c3ccc4c(c3)OCO4)n[nH]2)cc1` [sery378b], the figures for the inhibition at 10 µM (on α-synuclein (α-syn) (setting [6]); in data set [2]) were 74% and 34%, respectively. Also, in the data set on RML scrapie, the inhibition in vivo at 1 mg amounted to 39%. The molecule also showed a conc. brain in data set [3] of 26 nmol/g.
On to `OCCN1CCN(CCCN2c3ccccc3Sc3ccc(C(F)(F)F)cc32)CC1` [Fluphenazine], for which, in the data set on 139A (ip, 10 mg/kg), the “Median/Mean* Survival Therapy” value was 205 days and the “difference” value was 35 days.
As for `CN(C)c1ccc(-c2cc(-c3cccc(Br)c3)n[nH]2)cc1` [anle253b], the inhibition at 10 µM on α-synuclein (α-syn) (setting [6]) came out at 50%; in data set [2] it was 80%. In addition, the inhibition in vivo at 1 mg in the data set with RML scrapie stood at 59%. The “effect on actin polymerization” value in the data set on actin is on record as “do not affect actin polymerization”. The same molecule showed a conc. brain in [3] of 2.1 nmol/g.
On to `CO[C@@]12[C@H](COC(N)=O)C3=C(C(=O)C(C)=C(N)C3=O)N1C[C@@H]1N[C@@H]12` [Mitomycin C, reference compound], for which, in data set [4], the “chromosomal damage by positive controls” value is on record as “significant damage”.
In turn, `Fc1ccc(F)c(-c2cc(-c3ccc4c(c3)OCO4)n[nH]2)c1` yielded a melting point of 225 to 226 °C.
Consider `Brc1ccccc1-c1cc(-c2ccc3c(c2)OCO3)n[nH]1` [anle234b], for which the inhibition at 10 µM (at α-synuclein (α-syn) (setting [6]); in [2]) was less than 10% throughout. Also, the “inhibitory activity in PMCA, all prion strains tested” value in data set [5] was “inactive”. Also, the inhibition in vivo at 1 mg with RML scrapie was less than 10%. The conc. brain in data set [3] worked out at 32.1 nmol/g.
As to `Fc1cccc(-c2cc(-c3ccc4c(c3)OCO4)n[nH]2)c1` [anle186b], the inhibition at 10 µM on α-synuclein (α-syn) (setting [6]) is less than 10%; in data set [2], 48%. For the same molecule, in the data set with RML scrapie (PrP^Sc level in brain 106 days after i.c. infection, treatment 24 days: 14 days i.p. 0.84 mg, 2 × 5 days oral gavage 1 mg), the “% inhibition PrP^Sc in vivo (c)” value is reported as 30^c %. Besides, the “change of PrPSc levels in brain, mixed application scheme” value with RML scrapie (from 80 dpi: 14 days i.p. 0.84 mg, 2 x 5 days gavage 1 mg, measured at 95 and 106 dpi) is given as “slight reduction of PrPSc accumulation”. For the same molecule, in [3], the conc. brain was found to be 31.1 nmol/g.
With `Oc1ccc(-c2cc(-c3cccc(Br)c3)n[nH]2)cc1O` [anle138c], the inhibition at 10 µM on α-synuclein (α-syn) (setting [6]) came to 99%; in data set [2], 19%. Further, in the data set on RML scrapie, the inhibition in vivo at 1 mg is less than 10%. In the data set on actin, the “effect on actin polymerization” value is “do not affect actin polymerization”.
As to `CCC(C)(C)C(=O)O[C@H]1C[C@@H](C)C=C2C=C[C@H](C)[C@H](CC[C@@H]3C[C@@H](O)CC(=O)O3)[C@H]21` [Simvastatin], in the data set on RML (po, 20 mg/kg), the “Median/Mean* Survival Therapy” value was 167 days and the “difference” value is reported as 19 days.
`FC(F)(F)c1cccc(-c2cc(-c3ccc4c(c3)OCO4)n[nH]2)c1` [anle236b]: the inhibition at 10 µM (at α-synuclein (α-syn) (setting [6]); in [2]) was less than 10% in each case. In the data set with RML scrapie, the inhibition in vivo at 1 mg came out at 12%. The molecule further returned a conc. brain in data set [3] of 39.3 nmol/g.
With `COc1cc(/C=C/C(=O)CC(=O)/C=C/c2ccc(O)c(OC)c2)ccc1O` [Curcumin], in the data set on 139A (po, 50 mg/kg), the “Median/Mean* Survival Therapy” value is on record as 208 days and the “difference” value is listed as 12 days.
Regarding `O=P1(N(CCCl)CCCl)NCCCO1` (centres unmarked) [cyclophosphamide, reference compound], the “chromosomal damage by positive controls” value in [4] is on record as “significant damage”.
As for `Brc1cccc(-c2cc(-c3ccc4[nH]cnc4c3)n[nH]2)c1` [sery417], the inhibition at 10 µM at α-synuclein (α-syn) (setting [6]) was less than 10%; in [2], 51%. The inhibition in vivo at 1 mg in the data set on RML scrapie was less than 10%. In addition, the conc. brain in data set [3] is 0 nmol/g.
Turning to `Br.Oc1cc(-c2cc(-c3cc(Br)cc(Br)c3)n[nH]2)cc(O)c1O` [anle145c], in the data set on actin, the “effect on actin polymerization” value was “do not affect actin polymerization”.
As to `CC[C@H](C)C(=O)O[C@H]1C[C@H](O)C=C2C=C[C@H](C)[C@H](CC[C@@H](O)C[C@@H](O)CC(=O)O)[C@H]21` [Pravastatin], in the data set with 139A (po, 200 mg/kg), the “Median/Mean* Survival Therapy” value is reported as 194 days and the “difference” value is recorded as 17 days.
`Cl.Nc1ccc(-c2cc(-c3cccc(Br)c3)[nH]n2)cc1` [sery384]: the figures for the inhibition at 10 µM (at α-synuclein (α-syn); in [2]) were 99% and 55%, respectively. In addition, the inhibition in vivo at 1 mg in the data set with RML scrapie was less than 10%. Moreover, the conc. brain in [3] was 13,9 nmol/g.
On to Na2CaCDTA, for which, in the data set with M1000, the “Median/Mean* Survival Therapy” value is listed as 189 days and the “difference” value is listed as 20 days.
